Measured values as given in ChEMBL document CHEMBL4138214, “Urokinase receptor derived peptides as potent inhibitors of the formyl peptide receptor type 1-triggered cell migration” (Eur J Med Chem, 2018).
pIC50: −log10 of the molar value. Calls of active or inactive are those of the source. The calls are words filed in the database; no cut-off is given here. Square brackets hold non-standard residues; d marks the D form. Peptide text beside a SMILES is read from it. 1Nal = N[C@@H](Cc1cccc2ccccc12)C(=O)O; 2Nal = N[C@@H](Cc1ccc2ccccc2c1)C(=O)O; pS = N[C@@H](COP(=O)(O)O)C(=O)O

Legend:
Format in all cases: cell-based
Rattus norvegicus [1] = species: Rattus norvegicus; assay: Inhibition of FITC-fMLF induced FPR1 internalization in rat RBL-2H3/ETFR cells at 10 uM preincubated for 30 mins followed by agonist addition measured after 30 mins by confocal fluorescent microscopy
Rattus norvegicus [2] = species: Rattus norvegicus; assay: Inhibition of FITC-fMLF induced FPR1 internalization in rat RBL-2H3/ETFR cells at 10 uM preincubated for 30 mins followed by agonist addition measured after 30 mins by fluorescence assay
[3] = Induction of cell migration in rat RBL2H3/ETFR cells stably expressing FPR1 at 10 nM after 6 hrs by RTCA; settings: 0.01 µM
Rattus norvegicus [4] = species: Rattus norvegicus; assay: Antagonist activity at FPR1 in rat RBL-2H3/ETFR cells assessed as inhibition of fMLF-induced cell migration at 10 nM after 6 hrs by RTCA relative to fMLF
RBL-2H3 = assay: Induction of cell migration in rat RBL2H3 cells at 10 nM after 6 hrs by RTCA; settings: rbl-2h3, 6 h, 0.01 µM
[5] = (§1) Antagonist activity at FPR1 in rat RBL-2H3/ETFR cells assessed as inhibition of fMLF-induced cell migration after 4 hrs by RTCA relative to fMLF; settings: for pIC50: Rattus norvegicus, RBL-2H3, 4 h, read-out: IC50
Rattus norvegicus [6] = species: Rattus norvegicus; assay: as §1

Molecule	inhibition (Rattus norvegicus [1])	inhibition (Rattus norvegicus [2])	Activity [3]	inhibition (Rattus norvegicus [4])	Activity (RBL-2H3)	IC50 [5]	pIC50 [5]	inhibition (Rattus norvegicus [6])
N=C(N)NCCC[C@H](NC(=O)[C@H](Cc1ccc(O)cc1)NC(=O)[C@H](COP(=O)(O)O)NC(=O)[C@H](CO)NC(=O)[C@@H](N)CCCNC(=N)N)C(N)=O (H-RS[pS]YR-NH2)	inactive	inactive	Non-Toxic	0%	Non-Toxic	–	–	–
N=C(N)NCCC[C@H](NC(=O)[C@H](COP(=O)(O)O)NC(=O)[C@H](CCCNC(=N)N)NC(=O)[C@@H](N)CO)C(=O)N[C@@H](Cc1ccc(O)cc1)C(N)=O (H-SR[pS]RY-NH2)	Active	67%	Non-Toxic	67%	Non-Toxic	Dose-dependent effect	13.00	–
N=C(N)NCCC[C@H](NC(=O)[C@H](CO)NC(=O)[C@H](CCCNC(=N)N)NC(=O)[C@@H](N)COP(=O)(O)O)C(=O)N[C@@H](Cc1ccc(O)cc1)C(N)=O (H-[pS]RSRY-NH2)	–	–	Non-Toxic	58%	Non-Toxic	–	–	–
N=C(N)NCCC[C@@H]1NC(=O)[C@H](CCC(=O)O)NC(=O)[C@H](CCCNC(=N)N)NC(=O)[C@H](Cc2ccc(O)cc2)NC(=O)[C@H](CCC(=O)O)NC1=O (cyclo(EREYR))	–	61%	Non-Toxic	61%	Non-Toxic	–	–	–
N=C(N)NCCC[C@@H]1NC(=O)[C@H](CCC(=O)O)NC(=O)[C@H](CCCNC(=N)N)NC(=O)[C@H](Cc2ccccc2)NC(=O)[C@H](CO)NC1=O (cyclo(ERSFR))	–	Active	Non-Toxic	20%	Non-Toxic	–	–	–
N=C(N)NCCC[C@@H]1NC(=O)[C@H](CCC(=O)O)NC(=O)[C@H](CCCNC(=N)N)NC(=O)[C@H](Cc2c[nH]c3ccccc23)NC(=O)[C@H](CO)NC1=O (cyclo(ERSWR))	–	inactive	Non-Toxic	0%	Non-Toxic	–	–	–
N=C(N)NCCC[C@@H]1NC(=O)[C@H](CCC(=O)O)NC(=O)[C@H](CCCNC(=N)N)NC(=O)[C@H](Cc2ccc(O)cc2)NC(=O)[C@H](CO)NC1=O (cyclo(ERSYR))	–	55%	Non-Toxic	49%	Non-Toxic	–	–	–
N=C(N)NCCC[C@@H]1NC(=O)[C@H](CO)NC(=O)[C@H](CCCNC(=N)N)NC(=O)[C@H](Cc2ccc(O)cc2)NC(=O)[C@H](CCC(=O)O)NC1=O (cyclo(EYRSR))	–	–	Non-Toxic	34%	Non-Toxic	–	–	–
N=C(N)NCCC[C@@H]1NC(=O)[C@H](CO)NC(=O)[C@H](CO)NC(=O)[C@H](Cc2ccc(O)cc2)NC(=O)[C@H](CCCNC(=N)N)NC1=O (cyclo(RRYSS))	inactive	inactive	Non-Toxic	0%	Non-Toxic	–	–	–
N=C(N)NCCC[C@@H]1NC(=O)[C@H](CO)NC(=O)[C@H](CCCNC(=N)N)NC(=O)[C@H](Cc2ccc(O)cc2)NC(=O)[C@H](CO)NC1=O (cyclo(RSRSY))	Active	Active	Non-Toxic	75%	Non-Toxic	–	13.00	Dose-dependent effect
N=C(N)NCCC[C@@H]1NC(=O)[C@H](CO)NC(=O)[C@H](CCCNC(=N)N)NC(=O)[C@H](Cc2ccc(O)cc2)NC(=O)[C@H](COP(=O)(O)O)NC1=O (cyclo(RSR[pS]Y))	–	–	Non-Toxic	31%	Non-Toxic	–	–	–
N=C(N)NCCC[C@@H]1NC(=O)[C@H](COP(=O)(O)O)NC(=O)[C@H](CCCNC(=N)N)NC(=O)[C@H](Cc2ccc(O)cc2)NC(=O)[C@H](CO)NC1=O (cyclo(RSYR[pS]))	–	–	Non-Toxic	36%	Non-Toxic	–	–	–
N=C(N)NCCC[C@@H]1NC(=O)[C@H](CCC(=O)O)NC(=O)[C@H](CCCNC(=N)N)NC(=O)[C@H](Cc2cccc3ccccc23)NC(=O)[C@H](CO)NC1=O (cyclo([1Nal]RERS))	–	62%	Non-Toxic	43%	Non-Toxic	–	–	–
N=C(N)NCCC[C@@H]1NC(=O)[C@H](CCC(=O)O)NC(=O)[C@H](CCCNC(=N)N)NC(=O)[C@H](Cc2ccc3ccccc3c2)NC(=O)[C@H](CO)NC1=O (cyclo([2Nal]RERS))	–	Active	Non-Toxic	23%	Non-Toxic	–	–	–
CSCC[C@H](NC=O)C(=O)N[C@@H](CC(C)C)C(=O)N[C@@H](Cc1ccccc1)C(=O)O [N-FORMYLMETHIONYL-LEUCYLPHENYLALANINE]	Active	Active	Toxic	–	–	–	–	–
H-SRSRY-NH2	–	Active	–	–	–	–	–	–
